Measurements from patent US11203574B2 (BioCryst Pharmaceuticals, Inc., priority 2014, dated 2021).

target: human plasma kallikrein (Homo sapiens (Human), UniProt P03952); assay: Plasma kallikrein activity assay (chromogenic substrate S2302); assay type: biochemical; conditions: 2 nM kallikrein, 80 μM S2302, 30° C., pH 7.8; Ki by Cheng-Prusoff equation; values given as ranges; read-out: Ki
Sequence (P03952 whole entry, looked up): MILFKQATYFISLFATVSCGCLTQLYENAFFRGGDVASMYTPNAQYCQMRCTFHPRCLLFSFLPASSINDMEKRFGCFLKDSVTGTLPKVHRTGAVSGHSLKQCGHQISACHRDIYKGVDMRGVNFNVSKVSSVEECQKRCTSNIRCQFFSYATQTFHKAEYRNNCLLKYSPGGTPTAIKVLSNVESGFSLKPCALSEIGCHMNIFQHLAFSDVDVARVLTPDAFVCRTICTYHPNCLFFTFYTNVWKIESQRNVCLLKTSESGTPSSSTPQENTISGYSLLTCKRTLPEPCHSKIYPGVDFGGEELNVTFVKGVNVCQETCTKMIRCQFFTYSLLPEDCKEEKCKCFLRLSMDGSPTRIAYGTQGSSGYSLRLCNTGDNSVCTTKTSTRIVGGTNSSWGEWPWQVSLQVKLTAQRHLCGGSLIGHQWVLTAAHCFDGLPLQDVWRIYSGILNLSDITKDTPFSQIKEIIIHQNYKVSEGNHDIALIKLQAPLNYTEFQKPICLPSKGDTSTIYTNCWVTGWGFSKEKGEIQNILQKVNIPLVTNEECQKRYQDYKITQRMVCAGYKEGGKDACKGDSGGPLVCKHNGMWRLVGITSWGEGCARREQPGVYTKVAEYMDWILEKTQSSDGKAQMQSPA
Sequence (P03952 whole entry partner, looked up): as the sequence (P03952 whole entry, looked up) above

`NCc1cccc(-n2nc(C(F)(F)F)cc2C(=O)Nc2cccc(C(NCC3CC3)c3ccncc3)c2)c1` (stereo not shown) [86g, 1-(3-(aminomethyl)phenyl)-N-(3-((cyclopropylmethylamino)(pyridin-4-yl)methyl)phenyl)-3-(trifluoromethyl)-1H-pyrazole-5-carboxamide] was tested. Which Ki did it give?
The Ki was 0.1 to 50 nM.

How did the Ki turn out when `N#Cc1cccc(C(N)(CCC2CC2)c2ccc(F)c(NC(=O)c3cc(C(F)(F)F)nn3-c3cccc(CN)c3)c2)n1` (single isomer, unassigned; (+)) [220f, (+)-N-(5-(1-amino-1-(6-cyanopyridin-2-yl)-3-cyclopropylpropyl)-2-fluorophenyl)-1-(3-(aminomethyl)phenyl)-3-(trifluoromethyl)-1H-pyrazole-5-carboxamide] was run?
The Ki was 0.1 to 50 nM.

For `NCc1cccc(-n2nc(C(F)(F)F)cc2C(=O)Nc2cccc(C(OCC3CC3)c3ccccn3)c2)c1` (racemic) [43f, 1-(3-(aminomethyl)phenyl)-N-(3-((cyclopropylmethoxy)(pyridin-2-yl)methyl)-phenyl)-3-(trifluoromethyl)-1H-pyrazole-5-carboxamide], which Ki is on record?
The Ki was 0.1 to 50 nM.

Which Ki does the source give for `NCc1cccc(-n2nc(C(F)(F)F)cc2C(=O)Nc2cccc(C(OCC3CC3)c3cccnc3)c2)c1` (single isomer, unassigned; (+)) [44d, (+)-1-(3-(aminomethyl)phenyl)-N-(3-((cyclopropylmethoxy)(pyridin-3-yl)methyl)phenyl)-3-(trifluoromethyl)-1H-pyrazole-5-carboxamide] here?
The Ki was 0.1 to 50 nM.

How did the Ki turn out when `NCc1cccc(-n2nc(C(F)(F)F)cc2C(=O)Nc2cccc(C(NCC3CC3)c3cccc(N)c3)c2)c1` (stereo not shown) [102b, 1-(3-(aminomethyl)phenyl)-N-(3-((3-aminophenyl)(cyclopropylmethylamino)methyl)phenyl)-3-(trifluoromethyl)-1H-pyrazole-5-carboxamide] was run?
Its Ki is 0.1 to 50 nM.

For `NCc1cccc(-n2nc(C(F)(F)F)cc2C(=O)Nc2cc(F)cc(C(OCC3CC3)c3ccccc3)c2)c1` (stereo not shown) [80h, 1-(3-(aminomethyl)phenyl)-N-(3-((cyclopropylmethoxy)(phenyl)methyl)-5-fluorophenyl)-3-(trifluoromethyl)-1H-pyrazole-5-carboxamide], which Ki is on record?
Its Ki is 0.1 to 50 nM.

With `NCc1cccc(-n2nc(C(F)(F)F)cc2C(=O)Nc2cccc(C(OCC3CC3)c3cccnc3)c2)c1` (racemic) [44c, 1-(3-(aminomethyl)phenyl)-N-(3-((cyclopropylmethoxy)(pyridin-3-yl)methyl)phenyl)-3-(trifluoromethyl)-1H-pyrazole-5-carboxamide] as the compound, how does the Ki read?
Its Ki is 0.1 to 50 nM.

How did the Ki turn out when `CC(C)NC(c1ccccc1)c1cccc(NC(=O)c2cc(C(F)(F)F)nn2-c2cccc(CN)c2)c1` (stereo not shown) [144d, 1-(3-(Aminomethyl)phenyl)-N-(3-((isopropylamino)(phenyl)methyl)phenyl)-3-(trifluoromethyl)-1H-pyrazole-5-carboxamide] was run?
Its Ki is 0.1 to 50 nM.

How did the Ki turn out when `NCc1cccc(-n2nc(C(F)(F)F)cc2C(=O)Nc2cccc(C(CCC3CC3)N3CCCC3=O)c2)c1` (stereo not shown) [247e, 1-(3-(aminomethyl)phenyl)-N-(3-(3-cyclopropyl-1-(2-oxopyrrolidin-1-yl)propyl)phenyl)-3-(trifluoromethyl)-1H-pyrazole-5-carboxamide] was run?
The Ki was 0.1 to 50 nM.

With `NCc1cccc(-n2nc(C(F)(F)F)cc2C(=O)Nc2cccc(C(O)(CNC3CC3)c3ccccc3)c2)c1` (stereo not shown) [99g, 1-(3-(aminomethyl)phenyl)-N-(3-(2-(cyclopropylamino)-1-hydroxy-1-phenylethyl)phenyl)-3-(trifluoromethyl)-1H-pyrazole-5-carboxamide] as the compound, how does the Ki read?
The Ki was 0.1 to 50 nM.

With `Nc1nccc2ccc(-n3nc(C(F)(F)F)cc3C(=O)Nc3cc(C(N)(CCC4CC4)c4ccncc4)ccc3F)cc12` (single isomer, unassigned; (+)) [253e, (+)-N-(5-(1-amino-3-cyclopropyl-1-(pyridin-4-yl)propyl)-2-fluorophenyl)-1-(1-aminoisoquinolin-7-yl)-3-(trifluoromethyl)-1H-pyrazole-5-carboxamide] as the compound, how does the Ki read?
Its Ki is 0.1 to 50 nM.

For `NCc1cccc(-n2nc(C(F)(F)F)cc2C(=O)Nc2cc(C(CCC3CC3)n3ccc(=O)[nH]c3=O)ccc2F)c1` (stereo not shown) [263d, 1-(3-(aminomethyl)phenyl)-N-(5-(3-cyclopropyl-1-(2,4-dioxo-3,4-dihydropyrimidin-1(2H)-yl)propyl)-2-fluorophenyl)-3-(trifluoromethyl)-1H-pyrazole-5-carboxamide], which Ki is on record?
The Ki was 0.1 to 50 nM.

With `N=C(N)c1cccc(-n2nc(C(F)(F)F)cc2C(=O)Nc2cc(C(N)(CCC3CC3)c3cccnc3)ccc2F)c1` (single isomer, unassigned; (+)) [238d, (+)-N-(5-(1-amino-3-cyclopropyl-1-(pyridin-3-yl)propyl)-2-fluorophenyl)-1-(3-carbamimidoylphenyl)-3-(trifluoromethyl)-1H-pyrazole-5-carboxamide] as the compound, how does the Ki read?
The Ki was 0.1 to 50 nM.

How did the Ki turn out when `CCCN(c1ccccc1)c1ccc(F)c(NC(=O)c2cc(C(F)(F)F)nn2-c2cccc(CN)c2)c1` [77e, 1-(3-(aminomethyl)phenyl)-N-(2-fluoro-5-(phenyl(propyl)amino)phenyl)-3-(trifluoromethyl)-1H-pyrazole-5-carboxamide] was run?
Its Ki is 0.1 to 50 nM.

`CN1CCCN(C(CCC2CC2)c2ccc(F)c(NC(=O)c3cc(C(F)(F)F)nn3-c3cccc(CN)c3)c2)CC1` (stereo not shown) [251e, 1-(3-(aminomethyl)phenyl)-N-(5-(3-cyclopropyl-1-(4-methyl-1,4-diazepan-1-yl)propyl)-2-fluorophenyl)-3-(trifluoromethyl)-1H-pyrazole-5-carboxamide] was tested. Which Ki did it give?
The Ki was 50 to 100 nM.

With `NCc1cccc(-n2nc(C(F)(F)F)cc2C(=O)Nc2cc(C(NCC3CC3)c3ccccn3)ccc2F)c1` (stereo not shown) [100e, 1-(3-(aminomethyl)phenyl)-N-(5-((cyclopropylmethylamino)(pyridin-2-yl)methyl)-2-fluorophenyl)-3-(trifluoromethyl)-1H-pyrazole-5-carboxamide] as the compound, how does the Ki read?
Its Ki is 0.1 to 50 nM.

Which Ki does the source give for `CCCCC(c1ccccc1)c1cccc(NC(=O)c2cc(C(F)(F)F)nn2-c2cccc(CN)c2)c1` (stereo not shown) [32f, 1-(3-(aminomethyl)phenyl)-N-(3-(1-phenylpentyl)phenyl)-3-(trifluoromethyl)-1H-pyrazole-5-carboxamide] here?
The Ki was 50 to 100 nM.

For `N#Cc1cccc(C(N)(CCC2CC2)c2cccc(NC(=O)c3cc(C(F)(F)F)nn3-c3cccc(CN)c3)c2)c1` (single isomer, unassigned; (+)) [219c, (+)-N-(3-(1-amino-1-(3-cyanophenyl)-3-cyclopropylpropyl)phenyl)-1-(3-(aminomethyl)phenyl)-3-(trifluoromethyl)-1H-pyrazole-5-carboxamide], which Ki is on record?
The Ki was 0.1 to 50 nM.

Which Ki does the source give for `NCc1cccc(-n2nc(C(F)(F)F)cc2C(=O)Nc2cccc(C(NCC3CC3)c3cc(O)ccc3O)c2)c1` (stereo not shown) [146g, 1-(3-(aminomethyl)phenyl)-N-(3-((cyclopropylmethylamino)(2,5-dihydroxyphenyl)methyl)phenyl)-3-(trifluoromethyl)-1H-pyrazole-5-carboxamide] here?
Its Ki is 0.1 to 50 nM.

With `NCc1cccc(-n2nc(C(F)(F)F)cc2C(=O)Nc2cccc(C(O)(CCC3CC3)c3ccccc3)c2)c1` (single isomer, unassigned; (+)) [46h, (+)-1-(3-(aminomethyl)phenyl)-N-(3-(3-cyclopropyl-1-hydroxy-1-phenylpropyl)phenyl)-3-(trifluoromethyl)-1H-pyrazole-5-carboxamide] as the compound, how does the Ki read?
Its Ki is 0.1 to 50 nM.

`NCc1cccc(-n2nc(C(F)(F)F)cc2C(=O)Nc2cccc(C(NCC3CC3)c3ccccc3)c2F)c1` (stereo not shown) [88b, 1-(3-(aminomethyl)phenyl)-N-(3-((cyclopropylmethylamino)(phenyl)methyl)-2-fluorophenyl)-3-(trifluoromethyl)-1H-pyrazole-5-carboxamide] was tested. Which Ki did it give?
Its Ki is 0.1 to 50 nM.

How did the Ki turn out when `NCc1cccc(-n2nc(C(F)(F)F)cc2C(=O)Nc2cc(C(c3ccccc3)N(CC3CC3)CC3CC3)ccc2F)c1` (single isomer, unassigned; (-)) [206d, (−)-1-(3-(aminomethyl)phenyl)-N-(5-((bis(cyclopropylmethyl)amino)(phenyl)methyl)-2-fluorophenyl)-3-(trifluoromethyl)-1H pyrazole-5-carboxamide] was run?
Its Ki is 0.1 to 50 nM.

`NCc1cccc(-n2nc(C(F)(F)F)cc2C(=O)Nc2cccc(C(NCC3CC3)c3ccccc3OCc3ccccc3)c2)c1` (stereo not shown) [106a, 1-(3-(aminomethyl)phenyl)-N-(3-((2-(benzyloxy)phenyl)(cyclopropylmethylamino)methyl)phenyl)-3-(trifluoromethyl)-1H-pyrazole-5-carboxamide] was tested. Which Ki did it give?
The Ki was 0.1 to 50 nM.

How did the Ki turn out when `CC(=O)Nc1ccc(C(NCC2CC2)c2cccc(NC(=O)c3cc(C(F)(F)F)nn3-c3cccc(CN)c3)c2)cc1` (stereo not shown) [138f, N-(3-((4-acetamidophenyl)(cyclopropylmethylamino)methyl)phenyl)-1-(3-(aminomethyl)phenyl)-3-(trifluoromethyl)-1H-pyrazole-5-carboxamide] was run?
The Ki was 0.1 to 50 nM.

For `COc1cccc(C(NCC2CC2)c2ccc(F)c(NC(=O)c3cc(C(F)(F)F)nn3-c3cccc(CN)c3)c2)c1` (stereo not shown) [141e, 1-(3-(aminomethyl)phenyl)-N-(5-(((cyclopropylmethyl)amino)(3-methoxyphenyl)methyl)-2-fluorophenyl)-3-(trifluoromethyl)-1H-pyrazole-5-carboxamide], which Ki is on record?
Its Ki is 0.1 to 50 nM.

With `CS(=O)(=O)NC(CCC1CC1)(c1ccncc1)c1ccc(F)c(NC(=O)c2cc(C(F)(F)F)nn2-c2cccc(CN)c2)c1` (single isomer, unassigned; (-)) [245c, (−)-1-(3-(aminomethyl)phenyl)-N-(5-(3-cyclopropyl-1-(methylsulfonamido)-1-(pyridin-4-yl)propyl)-2-fluorophenyl)-3-(trifluoromethyl)-1H-pyrazole-5-carboxamide] as the compound, how does the Ki read?
The Ki was 0.1 to 50 nM.

For `CCCOc1ccc(C(NCC2CC2)c2cccc(NC(=O)c3cc(C(F)(F)F)nn3-c3cccc(CN)c3)c2)cc1` (stereo not shown) [127f, 1-(3-(Aminomethyl)phenyl)-N-(3-((cyclopropylmethylamino)(4-propoxyphenyl)methyl)phenyl)-3-(trifluoromethyl)-1H-pyrazole-5-carboxamide], which Ki is on record?
The Ki was 0.1 to 50 nM.

With `NCc1cccc(-n2nc(C(F)(F)F)cc2C(=O)Nc2cccc(C(CCC3CC3)N3CCCC3)c2)c1` (stereo not shown) [98b, 1-(3-(aminomethyl)phenyl)-N-(3-(3-cyclopropyl-1-(pyrrolidin-1-yl)propyl)phenyl)-3-(trifluoromethyl)-1H-pyrazole-5-carboxamide] as the compound, how does the Ki read?
The Ki was 0.1 to 50 nM.
